Assay results reported in PubChem BioAssay (NCI).
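Exposure lasted 48 hours, with cells grown in 96-well plates and compounds tested at five concentrations. TGI denotes the concentration required for complete inhibition of growth.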

Legend:
Assay in all cases: NCI tumour cell line growth inhibition, 48 h
CAKI-1 renal = system: CAKI-1 renal
HCT-15 colon = system: HCT-15 colon
HOP-92 NSCLC = system: HOP-92 NSCLC
IGROV1 ovarian = system: IGROV1 ovarian
M14 melanoma = system: M14 melanoma
NCI-H522 lung = system: NCI-H522 lung
RXF 393 renal = system: RXF 393 renal
SNB-75 CNS = system: SNB-75 CNS
SR leukemia = system: SR leukemia
PC-3 prostate = system: PC-3 prostate

SMILES	TGI (CAKI-1 renal)	TGI (HCT-15 colon)	TGI (HOP-92 NSCLC)	TGI (IGROV1 ovarian)	TGI (M14 melanoma)	TGI (NCI-H522 lung)	TGI (RXF 393 renal)	TGI (SNB-75 CNS)	TGI (SR leukemia)	TGI (PC-3 prostate)
O=C1c2ccccc2C(=O)N1Cc1ccccc1-c1c2nc(c(-c3ccccc3CN3C(=O)c4ccccc4C3=O)c3ccc([nH]3)c(-c3ccccc3CN3C(=O)c4ccccc4C3=O)c3nc(c(-c4ccccc4CN4C(=O)c5ccccc5C4=O)c4ccc1[nH]4)C=C3)C=C2	> 100 µM	> 100 µM	> 100 µM	> 100 µM	> 100 µM	> 100 µM	> 100 µM	> 100 µM	> 100 µM	
CC(=O)C1=C(C)NC2C=CC=CN12 (configuration not stated)	> 100 µM	> 100 µM	> 100 µM	> 100 µM	> 100 µM	> 100 µM	> 100 µM	> 100 µM	> 100 µM	
Cc1[nH]c(=O)[nH]c(=O)c1/C=C/C(=O)O	> 1000 µM	> 1000 µM	62.6 µM	> 1000 µM		> 1000 µM	> 1000 µM	> 1000 µM		
CCCCCCCCCCCCCCCCCC(=O)O[C@H](COC(=O)CCCCCCCCCCC)COC(=O)CCCCCCCCCCCCCCC	> 100 µM	> 100 µM	> 100 µM	> 100 µM	> 100 µM				> 100 µM	
COC(=O)C1=C2SCc3cccc(c3)CSC3=C(C(=O)OC)SC(=C(S2)S1)S3	> 100 µM				> 100 µM		> 100 µM	> 100 µM		> 100 µM
O=c1nc2c(c(-c3ccccc3Cl)[nH]1)COC/C2=C\c1ccccc1Cl	> 100 µM	> 100 µM	> 100 µM	> 100 µM	> 100 µM		> 100 µM	> 100 µM		> 100 µM
O=C(CSc1nnc(Cc2ccccc2)o1)Nc1ccc([N+](=O)[O-])cc1		> 100 µM		> 100 µM	> 100 µM	> 100 µM	> 100 µM	> 100 µM		
CC(=O)OC1CC2C(C)(C)OC(=O)CC(OC(C)=O)[C@]2(C)C2CCC3(C)C(=CCC3[C@H]3COC(=O)C3)[C@]12C (some centres not stated)	> 100 µM	> 100 µM	> 100 µM	> 100 µM	> 100 µM	> 100 µM	> 100 µM	> 100 µM	78.1 µM	
COc1cc(Nc2c3ccccc3nc3ccccc23)ccc1NS(C)(=O)=O				36.3 µM	13.5 µM	12.9 µM		47.1 µM	15.2 µM	
O=C(NC(Cc1ccc(I)cc1)C(=O)O)c1ccc(Br)cc1 (configuration not stated)	> 100 µM	> 100 µM	> 100 µM	> 100 µM		> 100 µM	> 100 µM	> 100 µM		
O=C1Nc2c(ccc(Cl)c2I)C1=O	30.6 µM	38.6 µM		30.7 µM	29.4 µM	30.6 µM	31.3 µM		42.2 µM	
NC(=O)NNC(=O)c1nc[nH]c1[N+](=O)[O-]	> 100 µM	> 100 µM		> 100 µM	> 100 µM	> 100 µM	> 100 µM	> 100 µM		> 100 µM
NC1=NS(=O)(=O)Nc2nc(-c3ccc([N+](=O)[O-])cc3)[nH]c21	> 100 µM	> 100 µM	> 100 µM	> 100 µM	> 100 µM	> 100 µM	> 100 µM	> 100 µM	> 100 µM	
CC(=O)Nc1cc2c(s1)CCC1CC(=O)NN=C21 (configuration not stated)		> 100 µM		> 100 µM	> 100 µM	> 100 µM	> 100 µM	> 100 µM	> 100 µM	
O=C(Cc1ccccc1)NN1C(=O)/C(=C\c2cccc(O)c2)SC1=Nc1ccccc1		> 100 µM		> 100 µM	> 100 µM		> 100 µM	> 100 µM		
CCN1C(=O)C(=C/C=C/c2ccc([N+](=O)[O-])cc2)C(=O)N(CC)C1=S	68.7 µM	> 100 µM	34.2 µM	32.6 µM	> 100 µM		33.1 µM			34.6 µM
CC(C)C(=O)/C=C/c1ccc(Br)cc1			30.9 µM	34.5 µM	32.4 µM	41.5 µM	36 µM	32.8 µM	53.6 µM	
NC1=NS(=O)(=O)Nc2nc(-c3ccc(Cl)cc3)c(-c3ccc(Cl)cc3)nc21	> 100 µM		> 100 µM	> 100 µM	> 100 µM	> 100 µM	> 100 µM	> 100 µM	> 100 µM	
CC1=COC(C)(C=C(C#N)C#N)CC1 (configuration not stated)				> 100 µM	> 100 µM		> 100 µM	> 100 µM	> 100 µM	
COc1ccc(O)cc1	> 100 µM	98.4 µM	> 100 µM	> 100 µM	> 100 µM		> 100 µM	> 100 µM	> 100 µM	
Oc1cc(C2OCCCO2)cc(O)c1O	> 100 µM	> 100 µM		> 100 µM	> 100 µM	> 100 µM		> 100 µM	> 100 µM	
CCCC(C)NC1=C(NC(C)=O)C(=O)c2ccccc2C1=O (configuration not stated)		> 100 µM	> 100 µM	> 100 µM	> 100 µM	> 100 µM	> 100 µM	> 100 µM	> 100 µM	
